Assay results from US20250144126A1, “APPLICATION OF 5'-MONOPHOSPHATE NUCLEOTIDE AND MIXTURE THEREOF IN PREPARATION OF DRUG OR FOOD FOR IMPROVING MITOCHONDRIAL FUNCTION” (priority 2021, published 2025).
“Also recorded” adds a separate entry of the source.

Tested on: H2O2-induced senescent mouse embryonic fibroblasts NIH/3T3
Assay: Seahorse xFe96 mitochondria stress detection experiment in H2O2-induced senescent cells
Format: cell-based
Conditions: 24 h incubation after 200 μmol/L H2O2 for 4 h; for mitochondrial basal respiration / mitochondrial oxygen consumption rate (OCR): vs blank and model control; for mitochondrial ATP production capability / mitochondrial maximum respiratory value / mitochondrial respiratory reserve: vs model control, P<0.05
Description: In this example, concentrations of the 5′-adenosine monophosphate and the 5′-disodium uridine obtained in Example 1 were 100 μmol/L and 200 μmol/L respectively, and were recorded as AMP 100 group and UMP 200 group, respectively. […] Model control group was a senescence cell model group intervened by hydrogen peroxide. Blank control group was a group free of mixture of 5′-adenosine monophosphate, 5′-disodium uridine and 5′-monophosphate nucleotide and without hydrogen peroxide intervention.
The cells used in the example were mouse embryonic fibroblasts NIH/3T3, which were purchased from Cell Bank of Chinese Academy of Sciences.
The cells were cultured in a DMEM high-sugar medium containing 1% penicillin/streptomycin and 10% fetal bovine serum in an incubator with 5% of CO2 at 37° C. under saturated humidity conditions. The establishment of the senescence cell model was as follows: After the cells grew to the wall of a culture vessel, different concentrations of hydrogen peroxide were used for intervention, where the concentrations of hydrogen peroxide were 50 μmol/L, 100 μmol/L, 200 μmol/L, 400 μmol/L, and 800 μmol/L. The medium containing hydrogen peroxide was removed after incubation for 4 hours, and a normal complete medium (DMEM high-sugar medium containing 1% penicillin/streptomycin and 10% fetal bovine serum) was added for incubation for 24 hours, then the cell activity of the cultured cells was detected by using a CCK-8 cell active kit, the expression of β-galactosidase was detected, and the expressions of the senescent marker p16INK4A and p21Waf1/Cipl were detected by western blot method.
In this example, the oxygen consumption rate (OCR), basal respiration, maximum respiratory value, ATP production capability and respiratory reserve of mitochondria were determined by using the Seahorse xFe96 (Agilent) mitochondria stress detection experiment. 20000 NIH/3T3 cells were inoculated in each well of a 96-well cell culture plate (Nunc, 165306) except the background wells at four corners. After overnight incubation and the cells grew to the wall of the culture plate, the cells were intervened by 200 μmol/L hydrogen peroxide for 4 hours, then the medium containing hydrogen peroxide was removed, and a normal complete medium containing nucleotides with different concentrations (DMEM high-sugar medium containing 1% of penicillin/streptomycin and 10% of fetal bovine serum, and the concentrations of 5′-adenosine monophosphate and 5′-disodium uridine were respectively 100 μmol/L and 200 μmol/L, and the concentration of the nucleotide mixture was 200 μmol/L) was added for incubation for 24 hours. A probe panel (xFe96 FluxPak, Agilent, 102353-100) was hydrated with a hydration solution (XF Calibrant Solution, Agilent, 100840-000) one day in advance, and then was placed in a non-CO2 incubator for incubation for at least 12 hours at 37° C. The experimental culture solution was prepared on the day of the experiment, 1 mL of 2.5 mM glucose (Glucose, Sigma, G7528), 1 mL of 2 mM glutamine (L-glutamine, Sigma, G8540), and 1 mL of 1 mM sodium pyruvate (Sodium pyruvate, Sigma, S8636) were added to 100 mL of base medium (Seahorse XF Basemedium, Agilent, 102353-100), and the pH of the culture solution was adjusted to 7.4±0.05 with 1N of NaOH. The culture solution of the cell culture plate was replaced with the experimental culture solution, 40 μL/well of the original medium was removed from the cell culture plate, then 160 μL/well of the experimental culture solution was added into the cell culture plate for dilution, and then 160 μL of the mixed culture solution was sucked out; the process was repeated for 2-3 times, finally the volume of the experimental culture solution in each well was 175 μL, and the cell culture plate was stood for 1 hour at 37° C.

| Structure (SMILES) | mitochondrial basal respiration (200 μmol/L) | mitochondrial oxygen consumption rate (OCR) (200 μmol/L) | mitochondrial ATP production capability (200 μmol/L) | mitochondrial maximum respiratory value (200 μmol/L) | mitochondrial respiratory reserve (200 μmol/L) | mitochondrial basal respiration (100 μmol/L) | mitochondrial oxygen consumption rate (OCR) (100 μmol/L) | mitochondrial ATP production capability (100 μmol/L) | mitochondrial maximum respiratory value (100 μmol/L) | mitochondrial respiratory reserve (100 μmol/L) |
| --- | --- | --- | --- | --- | --- | --- | --- | --- | --- | --- |
| O=c1ccn([C@@H]2O[C@H](COP(=O)([O-])[O-])[C@@H](O)[C@H]2O)c(=O)[nH]1.[Na+].[Na+] [UMP, 5′-disodium uridine] | significantly higher than that of the model control group; also recorded: returned to normal level | returned to normal level | significantly increased | significantly increased | significantly increased | – | – | – | – | – |
| Nc1nc2c(ncn2[C@@H]2O[C@H](COP(=O)([O-])[O-])[C@@H](O)[C@H]2O)c(=O)[nH]1.[Na+].[Na+] [GMP, 5′-disodium guanylate] | – | – | increased (P<0.05) but significantly lower than that in the nucleotide mixture group; also recorded: little effect | increased (P<0.05) but significantly lower than that in the nucleotide mixture group; also recorded: little effect | increased (P<0.05) but significantly lower than that in the nucleotide mixture group; also recorded: little effect | – | – | – | – | – |
| Nc1ncnc2c1ncn2[C@@H]1O[C@H](COP(=O)(O)O)[C@@H](O)[C@H]1O [AMP, 5′-adenosine monophosphate] | – | – | – | – | – | returned to normal level | returned to normal level | significantly increased | significantly increased | significantly increased |
| Nc1ccn([C@@H]2O[C@H](COP(=O)(O)O)[C@@H](O)[C@H]2O)c(=O)n1 [CMP, 5′-cytidine monophosphate] | increased and significantly lower than that in the nucleotide mixture group; also recorded: little effect | – | increased (P<0.05) but significantly lower than that in the nucleotide mixture group; also recorded: little effect | increased (P<0.05) but significantly lower than that in the nucleotide mixture group; also recorded: little effect | – | – | – | – | – | – |
